Results reported in patent US11253497B2, “Use of derivatives of polyunsaturated fatty acids as medicaments” (Lipopharma Therapeutics, S.L., priority 2009, dated 2022).

Experiments:
[1] = system: breast cancer cells MDA-MB-231; experiment: Growth of breast cancer cells MDA-MB-231; type: cell-based; settings: 72 hours of incubation
Method: (§1) For the experiments shown in FIG. 1, cultured human Non Small Cell Lung Cancer cells (A549) in RPMI 1640 were used, supplemented with 10% foetal bovine serum and antibiotics, at 37° C. and 5% CO2. […] After treatment, cell count was performed and the study of the mechanisms involved in the antitumor activity of compounds was evaluated by flow cytometry. […] These values correspond to averages of three independent experiments.
(§2) These charts show the antitumor efficacy of the compounds of this invention against the growth of breast cancer cells, brain (glioma), and lung cancer. […] The other experimental conditions are identical to those described in the preceding paragraph.

[2] = system: brain cancer cell (glioma) U118; experiment: Brain cancer (glioma) U118 cell growth; type: cell-based; settings: 72 hours of incubation
Method: For the experiments shown in FIG. 1, cultured human Non Small Cell Lung Cancer cells (A549) in RPMI 1640 were used, supplemented with 10% foetal bovine serum and antibiotics, at 37° C. and 5% CO2. Cells were maintained in culture for 48 hours in the presence or absence of D-PUFAs and PUFAs indicated in Table 2 at a concentration of 250 µM. After treatment, cell count was performed and the study of the mechanisms involved in the antitumor activity of compounds was evaluated by flow cytometry. […] These values correspond to averages of three independent experiments.
as §2

[3] = Lamellar-to-hexagonal (HII) transition temperature in DEPE model membranes by Differential Scanning Calorimetry; type: physicochemical; settings: DEPE membranes, DEPE:D-PUFA 10:1 (mol:mol)
Method: The transition temperature was determined by Differential Scanning Calorimetry. The proportion DEPE:D-PUFA was 10:1 (mol:mol) in all cases. Lamellar-to-hexagonal transition is an important parameter that reflects relevant signalling properties of cell membranes. […] When this occurs, certain peripheral membrane proteins (such as G proteins, protein kinase C or Ras protein) can more easily bind to the membrane, while others have a poor interaction (e.g., the Gα-protein), so changes in the HII transition temperature are important in regulating cellular functions related to health and human therapy (Escriba et al., 1995, Vogler et al., 2004; Escriba, 2006).
Control values correspond to model membranes in the absence of fatty acids. The reduction in HII transition temperature obtained by using the D-PUFA of the invention indicates an increased induction of membrane discontinuities, generating anchoring sites in the membrane for peripheral proteins and leads to better regulation of cell signalling and, therefore, greater effectiveness in the control of certain diseases.

[4] = system: lung cancer cells A549; experiment: Growth of lung cancer cells A549 (IC50); type: cell-based, human; settings: 72 hours of incubation
Method: as §1, §2

[5] = system: apolipoprotein AI (apoA-I); experiment: Levels of apoA-I in SHR rats (RT-PCR); type: in vivo, rat; settings: 200 mg/kg day p.o., 30 days, before treatment 100%
Method: (§3) In a separate experimental series, it was studied the effect of D-PUFA molecules of the present invention on blood pressure of SHR rats. In these animals both, blood pressure and levels of apolipoprotein AI (apoA-I) were measured. For these experiments Spontaneously Hypertensive Rats (SHR) were treated for 30 days with vehicle (water control) or compounds of the invention (200 mg/kg day, p.o.). At the end of this period, the animals' blood pressure and serum levels of apoA-I were measured. […] For these experiments, non-invasive methods for determining blood pressure (cuff-tail method) and gene expression for apoA-I (RT-PCR) described in the literature (Terés et al., 2008) were used. The usefulness of the molecules of the present invention for the treatment of cardiovascular diseases is reinforced by its capacity for reducing the levels of serum cholesterol and triglycerides (see below).
(§4) The average values of SHR before treatment were 214 mmHg and 100% respectively.

[6] = system: Spontaneously Hypertensive Rats (SHR); experiment: Blood pressure of SHR rats (cuff-tail method); type: in vivo, rat; settings: 200 mg/kg day p.o., 30 days, before treatment 214 mmHg
Method: as §3, §4

| Compound | IC50 [1] [µM] | IC50 [2] [µM] | Temperature of lamellar-to-hexagonal transition [3] [°C] | IC50 [4] [µM] | Levels of apoA-I [5] [%] | Blood pressure [6] [mm Hg] |
| --- | --- | --- | --- | --- | --- | --- |
| CCCCCC=CCC=CCCCCCCC(O)C(=O)OC (centres unmarked) [182D1] | 277 | 221 | 51 | 541 |  |  |
| CCCCCC=CCC=CCCCCCCC(OC)C(=O)O (centres unmarked) [182G1] | 378 | 205 | 51 | 439 |  |  |
| CCCCCC=CCC=CCCCCCCC(Cl)C(=O)OCC (centres unmarked) [182O1] | 286 |  | 51.7 | 452 |  |  |
| CCC=CCC=CCC=CCCCCCCC(O)C(=O)OCC (centres unmarked) [183E1] | 319 |  | 49.8 | 294 |  |  |
| CCCCCC=CCC=CCC=CCCCC(OC)C(=O)O (centres unmarked) [183G2] | 159 | 394 | 50.1 | 295 |  |  |
| CCCCCC=CCC=CCC=CCC=CCCC(O)C(=O)OC (centres unmarked) [204D1] | 281 | 311 | 48.7 | 372 |  |  |
| CCCCCC=CCC=CCC=CCC=CCCC(O)C(=O)OCC (centres unmarked) [204E1] | 299 | 224 | 48.4 | 475 |  |  |
| CCCCCC=CCC=CCC=CCC=CCCC(Cl)C(=O)OCC (centres unmarked) [204O1] | 298 |  | 49.7 | 461 |  |  |
| CCC=CCC=CCC=CCC=CCC=CCCC(O)C(=O)O (centres unmarked) [205C1] | 223 | 442 |  | 325 |  |  |
| CCC=CCC=CCC=CCC=CCC=CCCC(O)C(=O)OC (centres unmarked) [205D1] | 2 | 467 | 47.5 | 364 |  |  |
| CCC=CCC=CCC=CCC=CCC=CCCC(O)C(=O)OCC (centres unmarked) [205E1] | 284 | 513 | 46.7 | 413 |  |  |
| CCC=CCC=CCC=CCC=CCC=CCCC(OC)C(=O)O (centres unmarked) [205G1] | 219 | 426 | 47.3 | 407 |  |  |
| CCC=CCC=CCC=CCC=CCC=CCCC(OC)C(=O)OCC (centres unmarked) [205I1] | 261 | 510 |  | 351 |  |  |
| CCC=CCC=CCC=CCC=CCC=CCCC(C)C(=O)OC (centres unmarked) [205M1] | 216 | 462 |  | 293 |  |  |
| CCC=CCC=CCC=CCC=CCC=CCCC(F)C(=O)OCC (centres unmarked) [205T1] | 233 | 427 |  | 322 |  |  |
| CCC=CCC=CCC=CCC=CCC=CCC=CCC(O)C(=O)O (centres unmarked) [226C1] | 210 | 237 |  | 214 |  |  |
| CCC=CCC=CCC=CCC=CCC=CCC=CCC(O)C(=O)OC (centres unmarked) [226D1] | 224 | 241 | 43.9 | 221 |  |  |
| CCC=CCC=CCC=CCC=CCC=CCC=CCC(OC)C(=O)OC (centres unmarked) [226H1] | 199 | 294 |  | 247 |  |  |
| CCC=CCC=CCC=CCC=CCC=CCC=CCC(C)C(=O)OC (centres unmarked) [226M1] | 267 | 306 |  | 208 |  |  |

Now from value to compound, other results behind:

| IC50 [1] [µM] | IC50 [2] [µM] | Temperature of lamellar-to-hexagonal transition [3] [°C] | IC50 [4] [µM] | Compound | Levels of apoA-I [5] [%] | Blood pressure [6] [mm Hg] |
| --- | --- | --- | --- | --- | --- | --- |
| 289 | 213 | 50.6 | 387 | CCCCCC=CCC=CCCCCCCC(O)C(=O)OCC (centres unmarked) [182E1] |  |  |
| 419 |  |  | 328 | CCCCCC=CCC=CCCCCCCC(CO)C(=O)O (centres unmarked) [182P1] | 184 | 202 |
| 371 | 255 | 52.2 | 317 | CCCCCC=CCC=CCCCCCCC(OP(=O)(OCC)OCC)C(=O)OCC (centres unmarked) [182R1] |  |  |
| 245 |  | 51.1 | 326 | CCC=CCC=CCC=CCCCCCCC(O)C(=O)OC (centres unmarked) [183D1] |  |  |
| 175 | 385 | 49.4 | 267 | CCCCCC=CCC=CCC=CCCCC(O)C(=O)OC (centres unmarked) [183D2] |  |  |
| 193 |  | 49.3 | 243 | CCCCCC=CCC=CCC=CCCCC(O)C(=O)OCC (centres unmarked) [183E2] |  |  |
| 364 | 329 | 50.3 | 273 | CCC=CCC=CCC=CCCCCCCC(OC)C(=O)O (centres unmarked) [183G1] |  |  |
| 267 | 370 | 51.2 | 344 | CCC=CCC=CCC=CCCCCCCC(Cl)C(=O)OCC (centres unmarked) [183O1] |  |  |
| 217 |  | 51.3 | 318 | CCCCCC=CCC=CCC=CCCCC(Cl)C(=O)OCC (centres unmarked) [183O2] |  |  |
| 349 | 285 |  | 317 | CCC=CCC=CCC=CCCCCCCC(CO)C(=O)O (centres unmarked) [183P1] | 178 | 201 |
| 214 | 389 |  | 272 | CCCCCC=CCC=CCC=CCCCC(CO)C(=O)O (centres unmarked) [183P2] | 347 | 187 |
| 305 | 307 | 51.8 | 258 | CCC=CCC=CCC=CCCCCCCC(OP(=O)(OCC)OCC)C(=O)OCC (centres unmarked) [183R1] |  |  |
| 172 | 454 | 49.9 | 274 | CCCCCC=CCC=CCC=CCCCC(OP(=O)(OCC)OCC)C(=O)OCC (centres unmarked) [183R2] |  |  |
| 372 | 342 | 49.6 | 427 | CCCCCC=CCC=CCC=CCC=CCCC(OC)C(=O)O (centres unmarked) [204G1] |  |  |
| 285 | 501 | 50 | 364 | CCCCCC=CCC=CCC=CCC=CCCC(OP(=O)(OCC)OCC)C(=O)OCC (centres unmarked) [204R1] |  |  |
| 369 | 263 |  | 270 | CCCCCC=CCC=CCC=CCC=CCCC(OC=O)C(=O)OC (centres unmarked) [204U1] |  |  |
| 311 | 287 |  | 341 | CCCCCC=CCC=CCC=CCC=CCCC(C(=O)OCC)N(OCC)OCC (centres unmarked) [204W1] |  |  |
| 282 | 439 |  | 290 | CCC=CCC=CCC=CCC=CCC=CCCC(OC)C(=O)OC (centres unmarked) [205H1] |  |  |
| 264 |  | 48.6 | 418 | CCC=CCC=CCC=CCC=CCC=CCCC(Cl)C(=O)OCC (centres unmarked) [205O1] |  |  |
| 247 | 419 |  | 365 | CCC=CCC=CCC=CCC=CCC=CCCC(CO)C(=O)OCC (centres unmarked) [205Q1] |  |  |
| 245 | 468 | 48.4 | 417 | CCC=CCC=CCC=CCC=CCC=CCCC(OP(=O)(OCC)OCC)C(=O)OCC (centres unmarked) [205R1] |  |  |
| 272 | 454 |  | 426 | CCC=CCC=CCC=CCC=CCC=CCCC(OC=O)C(=O)OC (centres unmarked) [205U1] |  |  |
| 256 | 443 |  | 420 | CCC=CCC=CCC=CCC=CCC=CCCC(C(=O)OCC)N(OCC)OCC (centres unmarked) [205W1] |  |  |
| 207 | 265 | 42.9 | 209 | CCC=CCC=CCC=CCC=CCC=CCC=CCC(O)C(=O)OCC (centres unmarked) [226E1] |  |  |
| 213 | 278 | 44.1 | 273 | CCC=CCC=CCC=CCC=CCC=CCC=CCC(OC)C(=O)O (centres unmarked) [226G1] |  |  |
| 241 | 327 |  | 298 | CCC=CCC=CCC=CCC=CCC=CCC=CCC(OC)C(=O)OCC (centres unmarked) [226I1] |  |  |
| 263 | 254 |  | 252 | CCC=CCC=CCC=CCC=CCC=CCC=CCC(CO)C(=O)OCC (centres unmarked) [226Q1] |  |  |
| 199 | 263 |  | 243 | CCC=CCC=CCC=CCC=CCC=CCC=CCC(F)C(=O)OCC (centres unmarked) [226T1] |  |  |
